Data set [1] relates to Trypanosoma brucei. Kind of data set: Antitrypanosomal activity against bloodstream form of Trypanosoma brucei 427 after 48 hrs by MTS assay. It is filed as functional, organism-based. Conditions: Trypanosoma brucei, 427, 48 h.
Data set [2] can be described thus: Selectivity ratio of IC50 for human SKBR3 cells to IC50 for bloodstream form of Trypanosoma brucei 427. Format: ADME, cell-based, SK-BR-3. Conditions: read-out: Ratio IC50.
Data set [3] concerns SK-BR-3. Put plainly: Growth inhibition of human SKBR3 cells after 48 hrs by MTT assay. Format: cell-based. Conditions: SK-BR-3, 48 h. On the technique in general: Tetrazolium assays rely on reduction of a dye to a coloured formazan, in cell work by metabolically active cells.

`COc1ccc(CC(=O)Nc2ccc(N(C)S(C)(=O)=O)c(OCc3cc(C)ccc3C)c2)cc1OC`: the IC50 (commonly the concentration needed to halve the response being measured) in data set [1] came out at 6.85 µM. In addition, in data set [2], the selectivity ratio worked out at 5.

With `COC(=O)Nc1nc2cc(C(=O)c3cccs3)ccc2[nH]1` [NOCODAZOLE], the values for the IC50 in data set [3] and in data set [1] were 0.084 µM and 44.2 µM, respectively.

On to `CN(c1ccc(NC(=O)c2ccc(Cl)c([N+](=O)[O-])c2)cc1OCc1ccccc1)S(C)(=O)=O`, for which the IC50 in data set [1] is 2.3 µM. Besides, the selectivity ratio in data set [2] was found to be 4.

In data set [1], `CC(=O)O[C@H]1C(=O)[C@@]2(C)[C@H]([C@H](OC(=O)c3ccccc3)[C@]3(O)C[C@H](OC(=O)[C@H](O)[C@@H](NC(=O)c4ccccc4)c4ccccc4)C(C)=C1C3(C)C)[C@]1(OC(C)=O)CO[C@@H]1C[C@@H]2O` [PACLITAXEL] returned an IC50 of 0.0046 µM.

`Cc1ccc(C)c(COc2cc(NC(=O)c3ccc4c(c3)OCO4)ccc2N(C)S(C)(=O)=O)c1`: in data set [1], the IC50 came out at 3.22 µM. Further, the selectivity ratio in data set [2] came to 0.1.

In the case of `O=C(Nc1ccncc1)C(=O)c1cn(Cc2ccc(Cl)cc2)c2ccccc12` [INDIBULIN], the IC50 came out at 0.033 µM in data set [3] and 114 µM in data set [1].

The molecule `Cc1ccc(C)c(COc2cc(NC(=O)Cc3ccccc3)ccc2N(C)S(C)(=O)=O)c1` showed an IC50 in data set [1] of 51.3 µM. Moreover, in data set [2], the selectivity ratio was found to be 2.3.

On to `CN(c1ccc(NC(=O)c2ccc(C#N)cc2)cc1OCc1ccccc1)S(C)(=O)=O`, for which, in data set [1], the IC50 turned out to be 2.8 µM. In addition, the selectivity ratio in data set [2] stood at 6.

For the molecule `Cc1ccc(C)c(COc2cc(NC(=O)c3ccccc3)ccc2N(C)S(C)(=O)=O)c1`, in data set [1], 6.44 µM corresponded to half-maximal inhibition (IC50). For the same molecule, the selectivity ratio in data set [2] came out at 0.6.

Regarding `CC[C@]1(O)C[C@@H]2CN(CCc3c([nH]c4ccccc34)[C@@](C(=O)OC)(c3cc4c(cc3OC)N(C)[C@H]3[C@@](O)(C(=O)OC)[C@H](OC(C)=O)[C@]5(CC)C=CCN6CC[C@]43[C@@H]65)C2)C1` [VINBLASTINE], the IC50 in data set [3] worked out at 0.00091 µM; in data set [1] it was 0.41 µM.

In the case of `COc1ccc(S(=O)(=O)Nc2cccnc2Nc2ccc(O)cc2)cc1` [ABT-751], the IC50 in data set [3] is 0.74 µM; in data set [1] it was 82.1 µM.

Values taken from ChEMBL document CHEMBL2069209, “Identification of selective tubulin inhibitors as potential anti-trypanosomal agents” (Bioorg Med Chem Lett, 2012).
